Data reported in patent publication US11957687B2 (REGENERON PHARMACEUTICALS, INC., priority 2019, dated 2024).

molecular target: HSD17B13 (Homo sapiens (Human), UniProt Q7Z5P4); assay: HSD17B13 enzymatic inhibition assay (150 nM or 50 nM HSD17B13); format: biochemical; conditions: 50 nM HSD17B13; read-out: Inhibition of 50 nM of HSD17B13 IC50
Sequence (Q7Z5P4 other isoform, or with tags, fused parts or gaps): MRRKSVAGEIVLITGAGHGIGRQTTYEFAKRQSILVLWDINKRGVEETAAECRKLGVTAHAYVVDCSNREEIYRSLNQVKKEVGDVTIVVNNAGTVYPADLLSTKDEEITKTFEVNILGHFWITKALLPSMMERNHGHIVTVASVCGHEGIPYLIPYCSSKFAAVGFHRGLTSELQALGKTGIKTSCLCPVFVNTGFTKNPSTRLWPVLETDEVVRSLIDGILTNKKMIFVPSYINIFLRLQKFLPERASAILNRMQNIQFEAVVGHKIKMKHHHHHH

| SMILES | IC50 [nM] |
| --- | --- |
| CSc1ccccc1C(NC(=O)c1ccc(C(F)(F)F)[nH]c1=O)c1cccc(C)c1 (stereo not drawn) [Compound 245, N-((2-(methylthio)phenyl)(m-tolyl)methyl)-2-oxo-6-(trifluoromethyl)-1,2-dihydropyridine-3-carboxamide] | 1080 |
| CSc1ccccc1C(NC(=O)c1ccc(C(F)(F)F)[nH]c1=O)c1ccc(C)cc1 (stereo not drawn) [Compound 246, N-((2-(methylthio)phenyl)(p-tolyl)methyl)-2-oxo-6-(trifluoromethyl)-1,2-dihydropyridine-3-carboxamide] | 300 |
| CSc1c(C)cccc1C(NC(=O)c1ccc(C(F)(F)F)[nH]c1=O)c1ccccc1 (stereo not drawn) [Compound 247, N-((3-methyl-2-(methylthio)phenyl)(phenyl)methyl)-2-oxo-6-(trifluoromethyl)-1,2-dihydropyridine-3-carboxamide] | 930 |
| Cc1ccc2c(c1)C(NC(=O)c1ccc(C(F)(F)F)[nH]c1=O)c1ccccc1S2 (stereo not drawn) [Compound 248, N-(2-methyl-9H-thioxanthen-9-yl)-2-oxo-6-(trifluoromethyl)-1,2-dihydropyridine-3-carboxamide] | 300 |
| O=C(NC1c2ccccc2Sc2ccc(Cl)cc21)c1ccc(C(F)(F)F)[nH]c1=O (stereo not drawn) [Compound 249, N-(2-chloro-9H-thioxanthen-9-yl)-2-oxo-6-(trifluoromethyl)-1,2-dihydropyridine-3-carboxamide] | 390 |
| O=C(NC1c2ccc(Cl)cc2Sc2cc(Cl)ccc21)c1ccc(C(F)(F)F)[nH]c1=O [Compound 250, N-(3,6-dichloro-9H-thioxanthen-9-yl)-2-oxo-6-(trifluoromethyl)-1,2-dihydropyridine-3-carboxamide] | 60 |
| O=C(NC1c2ccc(Cl)cc2Sc2cccc(Cl)c21)c1ccc(C(F)(F)F)[nH]c1=O (stereo not drawn) [Compound 251, N-(1,6-dichloro-9H-thioxanthen-9-yl)-2-oxo-6-(trifluoromethyl)-1,2-dihydropyridine-3-carboxamide] | 650 |
| Cc1ccc2c(c1)Sc1cccc(C)c1C2NC(=O)c1ccc(C(F)(F)F)[nH]c1=O (stereo not drawn) [Compound 253, N-(1,6-dimethyl-9H-thioxanthen-9-yl)-2-oxo-6-(trifluoromethyl)-1,2-dihydropyridine-3-carboxamide] | 4270 |
| O=C(NC1c2ccc(Cl)cc2Oc2cccc(Cl)c21)c1ccc[nH]c1=O (stereo not drawn) [Compound 254, N-(1,6-dichloro-9H-xanthen-9-yl)-2-oxo-1,2-dihydropyridine-3-carboxamide] | > 10000 |
| O=C(NC1c2ccc(Cl)cc2Oc2cc(Cl)ccc21)c1ccc[nH]c1=O [Compound 255, N-(3,6-dichloro-9H-xanthen-9-yl)-2-oxo-1,2-dihydropyridine-3-carboxamide] | > 10000 |
| COc1cc(C)cc2c1CCC2NC(=O)c1ccc(C(F)(F)F)[nH]c1=O (stereo not drawn) [Compound 256, N-(4-methoxy-6-methyl-2,3-dihydro-1H-inden-1-yl)-2-oxo-6-(trifluoromethyl)-1,2-dihydropyridine-3-carboxamide] | > 10000 |
| COc1c(C)ccc2c1CCC2NC(=O)c1ccc(C(F)(F)F)[nH]c1=O (stereo not drawn) [Compound 257, N-(4-methoxy-5-methyl-2,3-dihydro-1H-inden-1-yl)-2-oxo-6-(trifluoromethyl)-1,2-dihydropyridine-3-carboxamide] | 7130 |
| Cc1ccc2c(c1)Sc1cc(C)ccc1C2NC(=O)c1cc(OC2CCOCC2)c(C(F)(F)F)[nH]c1=O [Compound 258, N-(3,6-dimethyl-9H-thioxanthen-9-yl)-2-oxo-5-((tetrahydro-2H-pyran-4-yl)oxy)-6-(trifluoromethyl)-1,2-dihydropyridine-3-carboxamide] | 10 |
| COc1ccc2c(c1)Oc1cc(OC)ccc1C2NC(=O)c1cc(OC2CCOCC2)c(C(F)(F)F)[nH]c1=O [Compound 259, N-(3,6-dimethoxy-9H-xanthen-9-yl)-2-oxo-5-((tetrahydro-2H-pyran-4-yl)oxy)-6-(trifluoromethyl)-1,2-dihydropyridine-3-carboxamide] | 70 |
| O=C(NC1CCCc2c(O)cccc21)c1ccc(SCc2cccc(C(F)(F)F)c2)[nH]c1=O (stereo not drawn) [Compound 261, N-(5-hydroxy-1,2,3,4-tetrahydronaphthalen-1-yl)-2-oxo-6-((3-(trifluoromethyl)benzyl)thio)-1,2-dihydropyridine-3-carboxamide] | 6870 |
| O=C(N[C@@H]1C[C@H](CCO)Cc2ccccc21)c1ccc(C(F)(F)F)[nH]c1=O [Compound 262, N-((1R,3R)-3-(2-hydroxyethyl)-1,2,3,4-tetrahydronaphthalen-1-yl)-2-oxo-6-(trifluoromethyl)-1,2-dihydropyridine-3-carboxamide] | 980 |
| O=C(N[C@@H]1C[C@@H](CCO)Cc2ccccc21)c1ccc(C(F)(F)F)[nH]c1=O [Compound 263, N-((1R,3S)-3-(2-hydroxyethyl)-1,2,3,4-tetrahydronaphthalen-1-yl)-2-oxo-6-(trifluoromethyl)-1,2-dihydropyridine-3-carboxamide] | 8460 |
| O=C(NC1CC(CO)Cc2ccccc21)c1ccc(C(F)(F)F)[nH]c1=O (stereo not drawn) [Compound 264, N-(3-(hydroxymethyl)-1,2,3,4-tetrahydronaphthalen-l-yl)-2-oxo-6-(trifluoromethyl)-1,2-dihydropyridine-3-carboxamide] | 9780 |

| SMILES | IC50 [nM] |
| --- | --- |
| CCC[C@H]1C[C@@H](NC(=O)c2cc(-c3ccccc3)c(C(F)(F)F)[nH]c2=O)c2cc(C)ccc2N1 [Compound 265, N-((2S,4R)-6-methyl-2-propyl-1,2,3,4-tetrahydroquinolin-4-yl)-2-oxo-5-phenyl-6-(trifluoromethyl)-1,2-dihydropyridine-3-carboxamide] | 80 |
| Cc1ccc2c(c1N)CCC2NC(=O)c1ccc(C(F)(F)F)[nH]c1=O (stereo not drawn) [Compound 266, N-(4-amino-5-methyl-2,3-dihydro-1H-inden-1-yl)-2-oxo-6-(trifluoromethyl)-1,2-dihydropyridine-3-carboxamide] | 640 |
| C=CCc1cc(NC(=O)c2ccc(C(F)(F)F)[nH]c2=O)cc(CC=C)n1 [Compound 267, N-(2,6-diallylpyridin-4-yl)-2-oxo-6-(trifluoromethyl)-1,2-dihydropyridine-3-carboxamide] | 9440 |
| CCCc1cc(NC(=O)c2ccc(C(F)(F)F)[nH]c2=O)cc(CCC)n1 [Compound 268, N-(2,6-dipropylpyridin-4-yl)-2-oxo-6-(trifluoromethyl)-1,2-dihydropyridine-3-carboxamide] | > 10000 |
| C=CCc1cc(NC(=O)c2ccc(C(F)(F)F)[nH]c2=O)cc(/C=C/C)n1 [Compound 269, (E)-N-(2-allyl-6-(prop-1-en-1-yl)pyridin-4-yl)-2-oxo-6-(trifluoromethyl)-1,2-dihydropyridine-3-carboxamide] | 5010 |
| C=CCc1cc(CC=C)cc(NC(=O)c2ccc(C(F)(F)F)[nH]c2=O)c1 [Compound 270, N-(3,5-diallylphenyl)-2-oxo-6-(trifluoromethyl)-1,2-dihydropyridine-3-carboxamide] | 1390 |
| Cc1ccc2c(c1)Sc1ccccc1C2NC(=O)c1ccc(C(F)F)[nH]c1=O (stereo not drawn) [Compound 275, 6-(difluoromethyl)-N-(3-methyl-9H-thioxanthen-9-yl)-2-oxo-1,2-dihydropyridine-3-carboxamide] | 100 |
| Cc1ccc2c(c1)C(NC(=O)c1ccc(C(F)F)[nH]c1=O)c1ccccc1O2 (stereo not drawn) [Compound 276, 6-(difluoromethyl)-N-(2-methyl-9H-xanthen-9-yl)-2-oxo-1,2-dihydropyridine-3-carboxamide] | 2620 |
| O=C(NC1c2ccccc2Sc2ccccc21)c1ccc(C(F)F)[nH]c1=O [Compound 277, 6-(difluoromethyl)-2-oxo-N-(9H-thioxanthen-9-yl)-1,2-dihydropyridine-3-carboxamide] | 2710 |
| O=C(NC1c2ccccc2Oc2ccccc21)c1ccc(C(F)F)[nH]c1=O [Compound 278, 6-(difluoromethyl)-2-oxo-N-(9H-xanthen-9-yl)-1,2-dihydropyridine-3-carboxamide] | 2000 |
| Cc1ccc2c(c1)Oc1ccccc1C2NC(=O)c1ccc(C(F)F)[nH]c1=O (stereo not drawn) [Compound 279, 6-(difluoromethyl)-N-(3-methyl-9H-xanthen-9-yl)-2-oxo-1,2-dihydropyridine-3-carboxamide] | 180 |
| Cc1ccc2c(c1)Oc1cc(C)ccc1C2NC(=O)c1ccc(C(F)F)[nH]c1=O [Compound 280, 6-(difluoromethyl)-N-(3,6-dimethyl-9H-xanthen-9-yl)-2-oxo-1,2-dihydropyridine-3-carboxamide] | 110 |
| Cc1ccc2c(c1)C(NC(=O)c1ccc(C(F)F)[nH]c1=O)c1ccccc1S2 (stereo not drawn) [Compound 281, 6-(difluoromethyl)-N-(2-methyl-9H-thioxanthen-9-yl)-2-oxo-1,2-dihydropyridine-3-carboxamide] | 1880 |
| COc1ccc(-c2nc(SCc3cccc(C(F)(F)F)c3)[nH]c(=O)c2C#N)cc1 [Compound 283, 4-(4-methoxyphenyl)-6-oxo-2-((3-(trifluoromethyl)benzyl)thio)-1,6-dihydropyrimidine-5-carbonitrile] | 4760 |
| CCCC1Cc2cc(C)ccc2C1NC(=O)c1ccc(C(F)(F)F)[nH]c1=O (stereo not drawn) [Compound 287, N-(5-methyl-2-propyl-2,3-dihydro-1H-inden-1-yl)-2-oxo-6-(trifluoromethyl)-1,2-dihydropyridine-3-carboxamide] | 60 |
| Cc1ccc2c(c1)C(NC(=O)c1ccc(C(F)(F)F)[nH]c1=O)C(C)C2 (stereo not drawn) [Compound 288, N-(2,6-dimethyl-2,3-dihydro-1H-inden-1-yl)-2-oxo-6-(trifluoromethyl)-1,2-dihydropyridine-3-carboxamide] | 190 |
| CCC1Cc2ccc(C)cc2C1NC(=O)c1ccc(C(F)(F)F)[nH]c1=O (stereo not drawn) [Compound 290, N-(2-ethyl-6-methyl-2,3-dihydro-1H-inden-1-yl)-2-oxo-6-(trifluoromethyl)-1,2-dihydropyridine-3-carboxamide] | 80 |
| COc1ccc2c(c1)CCC(C)C2NC(=O)c1ccc(C(F)(F)F)[nH]c1=O (stereo not drawn) [Compound 292, N-(6-methoxy-2-methyl-1,2,3,4-tetrahydronaphthalen-l-yl)-2-oxo-6-(trifluoromethyl)-1,2-dihydropyridine-3-carboxamide] | 220 |
